Assays:
[1] = test system: heart, liver and lung microfluidic modules; conditions: Skardal et al., Scientific Reports 7(1), 8837 (2017); cited from earlier work
[2] = test system: HCT116 colon cancer cells; test: Staurosporine acute toxicity on HCT116 cells in connected wells of the microfluidic device (live/dead staining); type: cell-based; conditions: for cell death (live/dead staining): 24 hours
Method: 20,000 HCT116 cells were plated directly on the Transwell® membrane (catalog number 3386 for Transwell® plate) in McCoy's 5A media such that the connected wells preceding them were either filled with McCoy's 5A media (50 μls) alone or filled with 25 μls of 2.5 mg/ml collagen gel, with McCoy's 5A media (50 μls) above it. The arrangement is depicted in FIG. 11A, showing three pairs of connected wells (test units), where the lower well in each connected pair (test unit) has medium only, while the upper well in each test unit has HCT116 cells inside the well.
The high-throughput microfluidic device of FIG. 5B was cleaned, assembled and sterilized via autoclaving for 60 minutes. The wells of the autoclave sterilized high-throughput microfluidic device (two-well connects) were filled with 300 μLs of media and centrifuged at 40 r.c.f for 4 minutes to fill all the channels.
After 24 hours of culture, 50 μls of fresh media with different concentrations of staurosporine were added to different wells (see FIG. 11A). The device was placed on a compressed air system and the fluid was pumped via membrane flexion under a compressed air cycle of 1.5 psi (amplitude), sinusoidal wave pattern with a frequency of 0.2. The cells were imaged with live/dead staining after 24 hours to understand the diffusion characteristics of the drug and resulting cell death induced by staurosporine. […] Note that each image of the cells in a single well is divided into quadrants.

[3] = test system: HCT116 colorectal cancer cells; test: Hepatocyte-cancer cell crosstalk: prodrug added to hepatocyte well, cell death in connected HCT116 well (live/dead staining); type: cell-based; conditions: increasing concentrations of Tegafur (0, 100, 200, 300 and 400 uM) added to hepatocyte chamber; fluidic flow 72 hours
Method: 20,000 primary human hepatocytes (Lonza) (Hepatocyte plating medium for 4 hours, followed by hepatocyte maintenance medium with 0.3% (v/v) matrigel GFR for 20 hours) or HepG2 cells (to be transfected with CYP2A6 cDNA (as per vendor's recommendation)) were plated in one well of the two connected wells in their respective cell culture medium (catalog number 3386 for Transwell® plate). Prior to plating the primary human hepatocytes from Lonza, the Transwell® plate was coated with 0.1 mg/ml collagen (50 μls) ([…] Sigma-collagen I rat tail solution) (solubilized in 0.1% acetic acid in 1×PBS (v/v)) for 1 hour at 37° C. (cell culture incubator) and washed with 1×PBS. The primary human hepatocytes were sandwiched in the human hepatocyte maintenance medium with 0.3% matrigel GFR (v/v) for the next 20 hours. In the other connected well of each test unit, 20,000 HCT116 cells were plated directly on the Transwell® membrane in McCoy's 5A media. For HepG2 cells, the cells were transfected with CYP2A6 cDNA for 48 hours prior to any drug addition. On the day of drug addition, the HCT116 colorectal cancer cells were moved into hepatocyte media in order to prevent mixing of different mediums. The high-throughput microfluidic device illustrated in FIG. 5B was cleaned, assembled and sterilized via autoclaving for 60 minutes. […]

[4] = test system: primary human hepatocytes; test: Hepatocyte-cancer cell crosstalk: viability of the hepatocytes after drug treatment; type: cell-based; conditions: Tegafur added to hepatocyte chamber; 72 hours
Method: 20,000 primary human hepatocytes (Lonza) (Hepatocyte plating medium for 4 hours, followed by hepatocyte maintenance medium with 0.3% (v/v) matrigel GFR for 20 hours) or HepG2 cells (to be transfected with CYP2A6 cDNA (as per vendor's recommendation)) were plated in one well of the two connected wells in their respective cell culture medium (catalog number 3386 for Transwell® plate). Prior to plating the primary human hepatocytes from Lonza, the Transwell® plate was coated with 0.1 mg/ml collagen (50 μls) (C3867 Sigma—collagen I rat tail solution) (solubilized in 0.1% acetic acid in 1×PBS (v/v)) for 1 hour at 37° C. (cell culture incubator) and washed with 1×PBS. The primary human hepatocytes were sandwiched in the human hepatocyte maintenance medium with 0.3% matrigel GFR (v/v) for the next 20 hours.
The high-throughput microfluidic device illustrated in FIG. 5B was cleaned, assembled and sterilized via autoclaving for 60 minutes. The wells of the autoclave-sterilized high-throughput microfluidic device (with two wells connected for each test unit) were filled with 300 μLs of media and centrifuged at 40 r.c.f for 4 minutes to fill all the flow channels. […] FIG. 12A depicts how the wells are filled, and FIG. 12B illustrates a test unit of the system. […]

For bleomycin, the “toxicity in multi-organ system” value [1] is listed as “induce lung inflammatory factor-driven cardiotoxicity”.
With `CN[C@@H]1C[C@H]2O[C@@](C)([C@@H]1OC)n1c3ccccc3c3c4c(c5c6ccccc6n2c5c31)C(=O)NC4` [staurosporine] the “cell death (live/dead staining)” value ([2]; test units with collagen gel plug as diffusion barrier, higher concentration of staurosporine) was “only a minor increase in cell death”, the “cell death in the HCT116 cells” value ([2]; test units without collagen gel, 0 μM, 25 μM and 50 μM staurosporine in connected well, 24 hours of operation) was “dose-dependent cell death” and the “cell death (live/dead staining)” value ([2]; without collagen gel, second image, 25 uM staurosporine) was “significant cell death”. The “cell death (live/dead staining)” value ([2]; without collagen gel, third image, 50 uM staurosporine) was “much more cell death”.
In the case of `O=c1[nH]c(=O)n(C2CCCO2)cc1F` (centres unmarked) [Tegafur], the “toxicity to HCT116 eGFP cells in the connected wells” value [3] is reported as “significant dose dependent toxicity”, the “propidium iodide stain in the hepatocytes” value [4] is reported as “slight dose dependent increase” and the “viability of hepatocytes after drug treatment” value [4] is reported as “high viability”.
